What was measured:
[1] = tested on: Human NK cells; assay: Intracellular cytokine staining of IFN-γ in NK cells; type: cell-based; details: 16 hours, BFA 1 μg/ml
Method: In these experiments 1×10^5 highly purified human NK cells were cultured as above, but were cultured with Poly I:C (10 μg/ml), or LPS (100 ng/ml), with or without 10, 50, or 100 ng/ml of recombinant human activin-A. In some cases, the known compound “SB431542,” which blocks activin-A binding to receptors was added. IFN-γ was then measured via ELISA, or by intracellular cytokine staining after 16 hours of culture, via addition of 1 μg/ml BFA, to prevent cytokine release.
In additional follow up experiments, the NK cells were stimulated with IL-2 or the combination of IL-2 and IL-12, plus poly I:C or LPS, for 16 hours, in the presence of 1 μg/ml of BFA, before a standard ICS assay was carried out via flow cytometry.

[2] = tested on: NK cells; assay: qRT-PCR of NK cell gene expression; type: cell-based, human; details: 16 hours
Method: In a second set of experiments, 5×10^5 purified NK cells were cultured as described herein, in 24 well-plates and were then collected, and lysed after 16 hours of culture.
The lysates were treated to extract the mRNA, which was then subjected to qRT-PCR to determine expression of each of T-bet (a transcription factor), IFN-γ, perforin, granzyme A, and granzyme B.

[3] = tested on: Human NK cells; assay: Western blot for Smad 2/3 in NK cells; type: cell-based; details: ex vivo purified NK cells, 50 ng/ml activin-A, 4 hours
Method: Human NK cells were highly purified, following standard methods; and were either lysed immediately or cultured for 20 hours in medium that had been supplemented with 20 U/ml IL-2, either with or without 10 ng/ml of IL-12, or with or without the toll like receptor 3 ligand Poly I:C, 5×10^5, lysed immediately, and then assayed for ALK-4 (an activin type I receptor), and RITA (an activin type II receptor), via qRT-PCR. In parallel, 1×10^5 highly purified NK cells were cultured in medium supplemented with 20 U/ml IL-2, with or without 50 ng/ml of recombinant human activin-A. Cells were harvested after 4 hours, and Western blotting was carried out for Smad 2/3 and β-actin.

[4] = tested on: NK cells (target cells K562 or Jurkat cells); assay: NK cell killing of calcein-labeled target cells; type: cell-based, human; details: 100 ng/ml, 3 days culture, K562 or Jurkat targets, 4 hours
Method: 1×10^6 purified NK cells were cultured in 24 well-plates, either with a high dose of IL-2 (100 U/ml), or a combination of 20 U/ml of IL-2 and IL-12. The culturing took place in the absence of either of activin-A or TGF-β or 100 ng/ml of one of them. The culture continued for 3 days.
After the 3 days of culture, the NK cells were combined with target cells K562 or Jurkat cells, at effector (NK cells): target (K562 or Jurkat cells) ratios of 5:1, 2:1, and 0.1:1. The target cells had been labeled with calcein previously. The total number of labeled target cells was 2×10^4, and the mixture was incubated for 4 hours. The efficiency of killing was determined by measuring calcein dye release via spectrometry.

[5] = tested on: Human NK cells; assay: IFN-γ ELISA of purified NK cells; type: cell-based
Method: A total of 1×10^5 highly purified human NK cells were cultured for 20 hours in medium supplemented with 20 U/ml IL-2, and 10 ng/ml IL-12. Either human recombinant activin-A, or TGF-β was added to the cultures, at concentrations of 10, 50 and 100 ng/ml. Supernatants were then tested for IFN-γ via ELISA, using standard methods. In these experiments 1×10^5 highly purified human NK cells were cultured as above, but were cultured with Poly I:C (10 μg/ml), or LPS (100 ng/ml), with or without 10, 50, or 100 ng/ml of recombinant human activin-A. In some cases, the known compound “SB431542,” which blocks activin-A binding to receptors was added. IFN-γ was then measured via ELISA, or by intracellular cytokine staining after 16 hours of culture, via addition of 1 μg/ml BFA, to prevent cytokine release. The impact of activin-A on production of IFN-γ by NK cells, in the absence of dendritic cells, was ascertained. Purified NK cells (1×10^5) were cultured in 96 well-plants, in media that was supplemented with 20 U/ml IL-2 and 10 ng/ml, IL-12, in the absence of, or with increasing concentrations of either activin-A, or TGF-β. Culture supernatants were assayed for IFN-γ after 24 hours of culture, using ELISAs, as described supra. As in the prior experiments, 1×10^5 purified NK cells were cultured in media supplemented with IL-2 only, or IL-2 plus IL-12, either with or without one of poly I:C or LPS, in the presence or absence of increased levels of activin-A.

[6] = tested on: NK cells; assay: NK cell viability by caspase and PI staining; type: cell-based, human; details: 24 hours
Method: With respect to testing viability, 1×10^5 purified NK cells were cultured as described supra, in 96 well-plates. After 24 hours of culture, cells were stained with antibodies to polycaspase, caspase 3/7, caspase 8 and PI.

[7] = tested on: Human NK cells; assay: CFSE division assay of NK cells; type: cell-based; details: 5 days, activin-A 100 ng/ml
Method: In these experiments, 1×10^5 highly purified human NK cells were labeled with CFSE, and cultured for 5 days in medium supplemented with 20 U/ml IL-2 and 10 ng/ml IL-12, either with or without Poly I:C or LPS, either with or without 100 ng/ml of human recombinant activin-A. Cellular division was assessed by determining loss of CFSE intensity using known, flow cytometric methods.

[8] = tested on: NK cells; assay: Flow cytometry of CD25 and CD56 on NK cells; type: cell-based, human
Method: As above, 1×10^5 purified NK cells were cultured in 96 well-plates in media that had been supplemented with IL-2 and IL-12, either with or without the addition of TLR ligands, in the presence of activin-A (100 ng/ml).
After 24 hours, […] were collected, and stained with anti-CD25 antibodies, with expression being determined by flow cytometry.

[9] = tested on: NK cells; assay: NKp30 expression on NK cells by flow cytometry; type: cell-based, human; details: NK cells after 3 day culture, 100 ng/ml
Method: In order to investigate the mechanism behind these differences, the same NK cells were purified and cryopreserved immediately after the 3 day culture period. The cells were thawed, washed, and stained for NCR. NKp30, with expression levels determined via flow cytometry. The level of expression was also determined using “ex vivo” samples, and NK cells that were cultured, without exposure to targets.

activin-A
number of IFN-γ producing cells [1]: not due to a decrease in the number of IFN-γ producing cells | number of IFN-γ producing cells ([1]; listed as Activin-A): did not effect these populations | IFN-γ mRNA expression [2]: inhibited expression of T-bet and IFN-γ significantly | T-bet mRNA expression [2]: inhibited expression of T-bet and IFN-γ significantly | perforin, granzyme A and granzyme B mRNA expression [2]: had no effect | intracellular Smad 2/3 levels [3]: enhanced intracellular Smad 2/3 levels | killing ability of NK cells [4]: had no impact whatsoever | IFN-γ production ([5]; NK cells stimulated with Poly I:C, activin-A 10, 50, 100 ng/ml): suppressed IFN-γ production | IFN-γ production ([5]; NK cells, IL-2 and IL-12, 20 hours, 10, 50, 100 ng/ml): as effective as TGF-β in suppressing the production of IFN-γ | IFN-γ production ([5]; NK cells, IL-2 and IL-12, 24 hours, increasing concentrations): as potent as TGF-β in inhibiting IFN-γ production | IFN-γ production ([5]; NK cells, IL-2 plus IL-12 with poly I:C or LPS, increased levels of activin-A): suppressed by addition of activin-A, in a concentration dependent manner | apoptosis (polycaspase, caspase 3/7, caspase 8, PI staining) [6]: no indication of apoptosis | division and proliferation of NK cells ([7]; IL-2, IL-12, LPS): very strongly suppressed | division and proliferation of NK cells ([7]; IL-2, IL-12, Poly I:C): very strongly suppressed | downregulation of CD56 ([8]; Example 16): suppressed | upregulation of CD25 ([8]; Example 16): suppressed | CD25 expression ([8]; IL-2 and IL-12 with or without TLR ligands, activin-A 100 ng/ml, 24 hours): significantly suppressed | NKp30 expression [9]: a very limited effect

— US20100279409A1, “METHOD FOR MODIFYING CELLUAR IMMUNE RESONSE BY MODULATING ACTIVIN ACTIVITY” (priority 2007, published 2010)
